Results taken from article doi:10.1101/2021.03.24.436638v1 (biorxiv, 2021).

Biological target: T1, GlyT2 (wtGlyT2) (Rattus norvegicus, UniProt P58295)
T1 sequence (P58295 1-799): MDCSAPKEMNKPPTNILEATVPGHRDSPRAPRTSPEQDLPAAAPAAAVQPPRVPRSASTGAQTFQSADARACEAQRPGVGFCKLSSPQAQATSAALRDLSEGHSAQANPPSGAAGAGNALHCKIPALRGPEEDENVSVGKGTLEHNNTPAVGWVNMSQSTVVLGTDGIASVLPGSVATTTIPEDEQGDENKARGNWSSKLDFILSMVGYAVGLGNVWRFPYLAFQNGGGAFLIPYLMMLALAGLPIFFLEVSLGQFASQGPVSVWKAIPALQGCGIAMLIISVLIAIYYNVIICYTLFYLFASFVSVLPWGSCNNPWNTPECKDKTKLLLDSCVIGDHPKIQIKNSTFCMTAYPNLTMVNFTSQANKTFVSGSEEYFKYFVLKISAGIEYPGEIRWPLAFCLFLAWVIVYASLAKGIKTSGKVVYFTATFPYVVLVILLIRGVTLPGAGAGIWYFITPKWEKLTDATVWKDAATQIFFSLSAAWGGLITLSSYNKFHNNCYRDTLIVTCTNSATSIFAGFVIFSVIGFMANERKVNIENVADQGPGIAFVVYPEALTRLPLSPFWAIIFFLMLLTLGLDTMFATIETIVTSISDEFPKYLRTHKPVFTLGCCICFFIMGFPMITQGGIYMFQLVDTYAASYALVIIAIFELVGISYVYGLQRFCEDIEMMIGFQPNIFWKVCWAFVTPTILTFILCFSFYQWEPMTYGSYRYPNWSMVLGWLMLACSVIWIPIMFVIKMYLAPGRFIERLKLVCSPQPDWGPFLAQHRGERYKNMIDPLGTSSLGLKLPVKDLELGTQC
Assay: [3H]glycine uptake inhibition in transfected COS7 cells
Type: cell-based

Structure (SMILES): CCCCC/C=C\C/C=C\C/C=C\C/C=C\CCCC(=O)NCC(=O)O [N-arachidonoyl glycine]
- IC50: 67 ± 23 µM
